What was measured:
Vasopressin V2 receptor [1] = target: T1, Vasopressin V2 receptor (Homo sapiens, UniProt P30518); assay: Antagonist activity at human vasopressin V2 receptor expressed in HEK293 cells assessed as inhibition of Arg-vasopressin-induced cAMP levels; type: functional, cell-based
Vasopressin V1a receptor [2] = target: T2, Vasopressin V1a receptor (Homo sapiens, UniProt P37288); assay: Displacement of [3H]Arg-vasopressin from human recombinant vasopressin V1a receptor expressed in HEK293 cells; type: cell-based
Target sequence in this assay (P37288 whole entry): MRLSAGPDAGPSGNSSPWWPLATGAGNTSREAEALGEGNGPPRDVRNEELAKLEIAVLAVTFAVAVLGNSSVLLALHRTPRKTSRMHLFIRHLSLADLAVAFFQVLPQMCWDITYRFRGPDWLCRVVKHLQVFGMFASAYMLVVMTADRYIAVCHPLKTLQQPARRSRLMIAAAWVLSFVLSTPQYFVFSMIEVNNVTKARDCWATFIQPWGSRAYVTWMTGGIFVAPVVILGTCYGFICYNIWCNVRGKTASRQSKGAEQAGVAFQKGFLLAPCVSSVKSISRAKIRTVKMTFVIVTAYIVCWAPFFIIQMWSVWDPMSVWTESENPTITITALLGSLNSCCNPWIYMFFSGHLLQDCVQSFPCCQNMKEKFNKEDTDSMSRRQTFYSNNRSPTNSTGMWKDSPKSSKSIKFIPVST

Vasopressin V1a receptor [3] = target: T2, Vasopressin V1a receptor; assay: Antagonist activity at human vasopressin V1a receptor expressed in HEK293 cells assessed as inhibition of Arg-vasopressin-induced intracellular calcium level; type: functional, cell-based
Target sequence in this assay (P37288 whole entry): as above

Vasopressin V2 receptor [4] = target: T1, Vasopressin V2 receptor; assay: Displacement of [3H]Arg-vasopressin from human recombinant vasopressin V2 receptor expressed in HEK293 cells; type: cell-based
Vasopressin V2 receptor [5] = target: T1, Vasopressin V2 receptor; assay: Displacement of [3H]Arg-vasopressin from human recombinant vasopressin V2 receptor expressed in HEK293 cells at 100 nM; type: cell-based
Vasopressin V1a receptor [6] = target: T2, Vasopressin V1a receptor; assay: Displacement of [3H]Arg-vasopressin from human recombinant vasopressin V1a receptor expressed in HEK293 cells at 100 nM; type: cell-based
Target sequence in this assay (P37288 whole entry, looked up): as the sequence (P37288 whole entry) above

[7] = Half life in cynomolgus monkey plasma; type: ADME, organism-based, Macaca fascicularis
Vasopressin V1a receptor [8] = target: Vasopressin V1a receptor (Rattus norvegicus, UniProt P30560); assay: Antagonist activity at rat vasopressin V1a receptor expressed in HEK293 cells assessed as inhibition of Arg-vasopressin-induced intracellular calcium level; type: functional, cell-based
Chain of Vasopressin V1a receptor (Rattus norvegicus, UniProt P30560) (P30560 whole entry): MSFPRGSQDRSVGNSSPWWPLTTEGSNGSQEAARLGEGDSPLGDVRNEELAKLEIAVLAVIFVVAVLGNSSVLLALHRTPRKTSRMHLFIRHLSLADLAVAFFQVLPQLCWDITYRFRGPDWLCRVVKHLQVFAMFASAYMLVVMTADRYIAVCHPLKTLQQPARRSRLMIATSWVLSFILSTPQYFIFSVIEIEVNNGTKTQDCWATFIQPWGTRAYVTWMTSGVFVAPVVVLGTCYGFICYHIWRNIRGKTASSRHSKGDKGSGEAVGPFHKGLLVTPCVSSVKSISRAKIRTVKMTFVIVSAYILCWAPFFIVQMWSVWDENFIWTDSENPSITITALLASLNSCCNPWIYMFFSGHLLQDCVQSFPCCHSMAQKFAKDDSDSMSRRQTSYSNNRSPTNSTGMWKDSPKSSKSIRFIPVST

[9] = Oral bioavailability in rat; type: ADME, organism-based; conditions: in vivo
Canis familiaris [10] = assay: Aquaretic effect in Beagle dog assessed as increase in urine volume at 30 mg/kg, po relative to control; type: functional, Canis lupus familiaris
[11] = Aqueous solubility at pH 7.4; type: physicochemical
[12] = Half life in dog plasma; type: ADME, organism-based, Canis lupus familiaris
Rattus norvegicus [13] = assay: Aquaretic effect in hydrated conscious rat assessed as reduction of urine osmolality at 30 mg/kg, po relative to control; type: functional; set-up: scale not given: the % may be the effect or the level left
Rattus norvegicus [14] = assay: Aquaretic effect in hydrated conscious rat assessed as increase in urine volume at 1 mg/kg, po relative to control; type: functional
Rattus norvegicus [15] = assay: Reversal of Arg-vasopressin-induced hypertension in iv dosed Long-Evans rat assessed as reduction of blood pressure; type: functional
Canis familiaris [16] = assay: Aquaretic effect in Beagle dog assessed as reduction of urine osmolality at 30 mg/kg, po relative to control; type: functional, Canis lupus familiaris; set-up: scale not given: the % may be the effect or the level left
Rattus norvegicus [17] = assay: Aquaretic effect in hydrated conscious rat assessed as increase in urine volume at 10 mg/kg, po relative to control; type: functional
Rattus norvegicus [18] = assay: Aquaretic effect in hydrated conscious rat assessed as increase in urine volume at 3 mg/kg, po relative to control; type: functional
[19] = Half life in rat plasma; type: ADME, organism-based
Rattus norvegicus [20] = assay: Aquaretic effect in hydrated conscious rat assessed as increase in urine volume at 30 mg/kg, po relative to control; type: functional
Rattus norvegicus [21] = assay: Aquaretic effect in hydrated conscious rat assessed as reduction of urine osmolality at 10 mg/kg, po relative to control; type: functional; set-up: scale not given: the % may be the effect or the level left
Vasopressin V2 receptor [22] = target: Vasopressin V2 receptor (Rattus norvegicus, UniProt Q00788); assay: Antagonist activity at rat vasopressin V2 receptor expressed in HEK293 cells assessed as inhibition of Arg-vasopressin-induced cAMP levels; type: functional, cell-based
Chain of Vasopressin V2 receptor (Rattus norvegicus, UniProt Q00788) (Q00788 whole entry): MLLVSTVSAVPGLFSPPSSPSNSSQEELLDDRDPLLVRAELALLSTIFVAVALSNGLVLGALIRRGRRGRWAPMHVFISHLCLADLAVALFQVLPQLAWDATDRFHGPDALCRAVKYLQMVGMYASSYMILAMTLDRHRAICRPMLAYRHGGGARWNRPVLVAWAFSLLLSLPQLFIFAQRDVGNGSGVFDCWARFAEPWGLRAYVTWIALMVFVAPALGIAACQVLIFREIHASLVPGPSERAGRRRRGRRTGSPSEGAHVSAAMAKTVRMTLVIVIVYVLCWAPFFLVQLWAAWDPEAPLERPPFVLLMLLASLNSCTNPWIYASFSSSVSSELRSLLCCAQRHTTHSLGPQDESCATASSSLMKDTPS

Rattus norvegicus [23] = assay: Aquaretic effect in hydrated conscious rat assessed as reduction of urine osmolality at 1 mg/kg, po relative to control; type: functional; set-up: scale not given: the % may be the effect or the level left
[24] = Oral bioavailability in cynomolgus monkey; type: ADME, organism-based, Macaca fascicularis; conditions: in vivo
Rattus norvegicus [25] = assay: Aquaretic effect in hydrated conscious rat assessed as reduction of urine osmolality at 3 mg/kg, po relative to control; type: functional; set-up: scale not given: the % may be the effect or the level left
[26] = Oral bioavailability in dog; type: ADME, organism-based, Canis lupus familiaris; conditions: in vivo

T1 sequence (P30518 whole entry): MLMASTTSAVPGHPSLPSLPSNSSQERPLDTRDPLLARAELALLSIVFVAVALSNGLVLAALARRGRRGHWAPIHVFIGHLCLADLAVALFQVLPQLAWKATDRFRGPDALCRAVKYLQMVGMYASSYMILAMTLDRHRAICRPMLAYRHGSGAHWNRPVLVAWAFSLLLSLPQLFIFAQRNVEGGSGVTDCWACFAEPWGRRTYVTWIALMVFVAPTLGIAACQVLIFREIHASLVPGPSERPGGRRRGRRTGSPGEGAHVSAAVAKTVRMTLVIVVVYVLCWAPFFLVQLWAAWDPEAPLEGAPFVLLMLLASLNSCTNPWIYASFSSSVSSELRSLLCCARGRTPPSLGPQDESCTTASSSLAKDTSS

Compound	IC50 (Vasopressin V2 receptor [1])	IC50 (Vasopressin V1a receptor [2])	IC50 (Vasopressin V1a receptor [3])	IC50 (Vasopressin V2 receptor [4])	Activity (Vasopressin V2 receptor [5])	also measured
COc1cc(C(=O)N2CCC3(C=C(C(=O)O)CC3)Cc3ccccc32)ccc1NC(=O)c1cc(F)ccc1Cl (stereo not given)	120 nM	19 nM	89 nM	92 nM	–	–
Cc1ccc(F)cc1C(=O)Nc1ccc(C(=O)N2Cc3cccn3Cc3ccccc32)c(Cl)c1 [LIXIVAPTAN]	–	–	> 5000 nM	–	–	–
CNCC1=CC2(CC1)CCN(C(=O)c1ccc(NC(=O)c3cc(F)ccc3C)cc1Cl)c1ccccc1C2 (stereo not given)	–	–	–	–	17%	Activity (Vasopressin V1a receptor [6]): 0%
COC(=O)C1=CC2(CC1)CCN(C(=O)c1ccc(NC(=O)c3cc(F)ccc3Cl)cc1)c1ccccc1C2 (stereo not given)	> 10000 nM	40 nM	190 nM	> 200 nM	–	–
O=C(O)C1=CC2(CC1)CCN(C(=O)c1ccc(NC(=O)c3cc(F)ccc3Cl)cc1)c1ccccc1C2 (stereo not given)	410 nM	32 nM	780 nM	76 nM	–	–
O=C(Nc1ccc(C(=O)N2CCC3(C=C(CO)CC3)Cc3ccccc32)cc1)c1ccccc1-c1ccccc1 (stereo not given)	190 nM	–	9 nM	–	–	–
CN(C)CCNC(=O)C1=C[C@@]2(CC1)CCN(C(=O)c1ccc(NC(=O)c3ccccc3-c3ccccc3)cc1)c1ccccc1C2	36 nM	2 nM	45 nM	8 nM	–	–
Cc1ccc(F)cc1C(=O)Nc1ccc(C(=O)N2CCC3(C=C(CO)CC3)Cc3ccccc32)c(Cl)c1 (stereo not given)	–	100 nM	–	–	66%	–
O=C(O)C1=CC2(CC1)CCN(C(=O)c1ccc(NC(=O)c3ccccc3-c3ccccc3)cc1)c1ccccc1C2 (stereo not given)	360 nM	–	–	–	–	–
CNCC1=CC2(CC1)CCN(C(=O)c1ccc(NC(=O)c3ccccc3-c3ccccc3)cc1)c1ccccc1C2 (stereo not given)	1800 nM	18 nM	630 nM	44 nM	–	–
COC(=O)C1=CC2(CC1)CCN(C(=O)c1ccc(NC(=O)c3ccccc3F)cc1)c1ccccc1C2 (stereo not given)	> 10000 nM	–	130 nM	–	23%	–
COc1cc(NC(=O)c2cc(F)ccc2C)ccc1C(=O)N1CCC2(C=C(C(=O)O)CC2)Cc2ccccc21 (stereo not given)	140 nM	–	11600 nM	–	–	Activity (Vasopressin V1a receptor [6]): 15%
O=C(O)C1=CC2(CC1)CCN(C(=O)c1ccc(NC(=O)c3ccccc3F)cc1)c1ccccc1C2 (stereo not given)	–	100 nM	–	–	15%	–
COc1cc(C(=O)N2CC[C@]3(C=C(C4=NCCN4)CC3)Cc3ccccc32)ccc1NC(=O)c1cc(F)ccc1Cl	1050 nM	–	–	–	–	–
COc1cc(C(=O)N2CC[C@]3(C=C(C(=O)O)CC3)Cc3ccccc32)ccc1NC(=O)c1cc(F)ccc1Cl	–	–	–	34 nM	–	half-life [7]: 10.9 h; IC50 (Vasopressin V1a receptor [8]): 640 nM; bioavailability [9]: 68%; Activity (Canis familiaris [10]): 1130%; solubility [11]: > 1000 µg/mL; half-life [12]: 5.1 h; Activity (Rattus norvegicus [13]): 83%; Activity (Rattus norvegicus [14]): 130%; ED50 (Rattus norvegicus [15]): 0.644 mg/kg; Activity (Canis familiaris [16]): -78%; Activity (Rattus norvegicus [17]): 310%; Activity (Rattus norvegicus [18]): 165%; half-life [19]: 8.7 h; Activity (Rattus norvegicus [20]): 690%; Activity (Rattus norvegicus [21]): 52%; IC50 (Vasopressin V2 receptor [22]): 30 nM; Activity (Rattus norvegicus [23]): 87%; bioavailability [24]: 23%; Activity (Rattus norvegicus [25]): 48%; bioavailability [26]: 45%
Cc1ccc(F)cc1C(=O)Nc1ccc(C(=O)N2CCC3(C=C(C(=O)O)CC3)Cc3ccccc32)c(Cl)c1 (stereo not given)	–	–	–	–	67%	Activity (Vasopressin V1a receptor [6]): 10%

— ChEMBL document CHEMBL1140572, “Next-generation spirobenzazepines: identification of RWJ-676070 as a balanced vasopressin V1a/V2 receptor antagonist for human clinical studies” (Bioorg Med Chem Lett, 2007)
